Assay [1] has as its system ferric iron accumulation. Nature of the assay: Perls' DAB stain for ferric iron in cerebellar folia and striatum. The assay is classed as in vivo, mice. As to conditions: cerebellar folia and striatum of IRP2−/− animals on Tempo1 diet. As for the experimental part: (§1) Diet: The mice were weaned 3-4 weeks after their birth. Immediately after weaning, mice were maintained on either a Tempo1-supplemented or control diet. In the Tempo1-supplemented diet, powdered Tempo1 was uniformly mixed with bacon-flavored mouse chow by a “cold press” technique (Bio-Serv, Frenchtown, N.J., USA) at a concentration of 10 mg/g of food. Bacon-flavored chow without Tempo1 was used as the control diet.
Perl's DAB iron staining: After dewaxing and rehydrating, paraffin-embeded tissue sections were stained in prewarmed staining solution (5% potassium ferrocyanide 15.0 ml, 5% hydrochloric acid 15.0 ml, 15 sec in micro oven) for 5 min. The sections were rinsed with distilled water and Tris-buffered saline pH7.4, then were stained with DAB staining solution (20 mg DAB, 50 μl 30% H2O2, 20 ml Tris-buffered saline pH 7.4) for 30 min at room temperature. After rinsing with distilled water, the sections were mounted with Crystal Mount mounting solution (Sigma) and were observed and taken pictures with Nikon Eclipse E600 fluorescence microscope.
Cerebellar folia and striatum of wild type and IRP2−/− mice that were maintained on a control diet or on a Tempo1-supplemented diet were analyzed for ferric iron accumulation using Perls' DAB stain. […]

The test system of assay [2] is L-ferritin (L-Ft). Nature of the assay: Western blot of L-ferritin in IRP2−/− embryonic fibroblasts. The class given is cell-based, mouse. As to conditions: 0.3 and 1.0 mM, 16 h, with or without FAC. As for the experimental part:
(§2) Cells: Embryonic fibroblasts of 13-day old embryos were isolated from wild type, IRP1−/− mice and IRP2−/− mice as described in LaVaute et al. supra. Myc-tagged HEK 293 Tet-on cell line, in which IRP2 expression was inducible, was prepared and cultured as described Bourdon et al., Blood Cells Mol Dis, 31, 247-255 (2003). Erythroblasts were harvested from bone marrow and purified as described in Cooperman et al., Blood, 106, 1084-1091 (2005).
(§3) Western blotting and antibodies: Protein analysis was carried out as described in LaVaute et al., supra. Equal amounts of protein (20-40 μg/lane) were separated on 13% SDSPAGE and transferred to nitrocellulose membranes. The membrane was blocked with 5% non-fat milk, 0.1% Triton X-100 in PBS and probed at RT in the same blocking buffer. IRP1 antibody was prepared against purified hIRP1 and used at 1:5000 dilution. L-ferritin antibody was raised in rabbit from L-ferritin protein purified from mouse livers. […]
(§4) To study the effect of Tempo1 on the IRE-binding activity of IRP1, IRP2−/− embryonic fibroblasts that were maintained in culture supplemented with 0, 0.3 and 1.0 mM Tempo1, with or without ferric ammonium citrate (FAC), for 16 h. […] Quantification was performed with the IQMac (IRP1 activity) or NIH Image (protein levels) program. Error bars represent the standard deviation calculated from the results of two different sets of experiments.
A general note: Immunoblotting shows a protein as a band on a membrane.

Assay [3] has as its system TfR1. Description: Western blot of TfR1 in brain-region lysates of IRP2−/− mice. To be noted: lysates from cerebellum, brain-stem and forebrain of IRP2−/− mice, Tempo1 diet vs control diet. The class given is in vivo. Here is the method: as §1
Tissue and lysate preparation: Animals were euthanized and tissues were frozen in liquid nitrogen immediately after harvesting, and stored at −80° C. under argon. Experiments were performed on tissues that were pulverized in liquid N2-cooled mortars in an anaerobic chamber, and then lysed in lysis buffer that was deaerated by cyclic freezethaw and air-removal with argon. […]
Lysates made from various brain regions of IRP2−/− mice that were maintained on a control diet or on a Tempo1-supplemented diet were analyzed for IRE binding activity of IRP1 and for TfR1, IRP1, and actin protein levels by gel-shift assay and Western blot. […] FIG. 3b is a quantification of the results as intensity of the bands relative to the control, represented here as 100%. Quantification was performed with the IQMac (IRP1 activity) or NIH Image (protein levels) program. Error bars represent the standard deviation calculated from the results of two different sets of animals.

Assay [4] relates to IRP1. Description: Western blot of IRP1 protein in IRP2−/− embryonic fibroblasts. The class given is cell-based, mouse. To be noted: 0.3 and 1.0 mM, 16 h. Here is the method: as §2, §3, §4
Assay [5] has as its system ferritin. Description: Immunohistochemistry of ferritin in hippocampus and cortex. The class given is in vivo. To be noted: hippocampus and cortex of IRP2−/− mice. As for the experimental part:
as §1
Immunohistochemistry: Paraffin-embedded tissue sections were boiled in a micro oven for 15 min for antigen retrieval in 10 mM citrate buffer pH 6.4 after dewaxing and rehydrating. The sections were blocked in blocking buffer (Tris-buffered saline pH 7.4, 5% nomial goat serum, 0.1% Tween-20) for 30 min, then were incubated with polyclonal rabbit anti-ferritin antibody for 2 h at room temperature, the protein-antibody complex was labeled by CY3-donkey anti-rabbit antibody (Jackson ImmunoResearch Laboratories, Inc., West Grove, Pa.), nuclei were labeled by DAPI as counterstaining. The slides were observed and the pictures were recorded with Nikon Eclipse E600 fluorescence microscope.
Immunohistochemical studies were performed to analyze ferritin expression in the hippocampus and cortexregions of the mouse brains. […] The overexpression of ferritin decreased with Tempo1 treatment.

SMILES strings stand for the structures.

In the case of `CC1(C)CC(O)CC(C)(C)N1[O]` [Tempo1], the ferric iron staining result in assay [1] is “decreased”. For the same compound, the ferritin levels entry in assay [2] is given as “decreased”. For the same compound, the TfR1 protein levels result in assay [3] is listed as “markedly increased”. Besides, in assay [4], the IRP1 levels result is recorded as “unchanged”. In addition, the overexpression of ferritin result in assay [5] is “decreased”.

The values are drawn from patent US20100179188A1, “NITROXIDE RADICAL AS TREATMENT FOR NEURODEGENERATION” (Office of Technology Transfer, NIH, priority 2007, published 2010).
